# Source: PubChem BioAssay AID1645848
# Details: buffer; pH 7.4; 6.0 h; 150.0 µM
row,SMILES,solubility kinetic [µg/mL]
1,Cc1c([C@@H](C)C2NC[C@H](C)C[C@@H]2O)ccc2c1C[C@@H]1[C@H]2CC=C2C[C@@H](O)CC[C@@]21C (stereo partly drawn),40.9
2,O=C(Nc1nc(-c2ccccc2)cs1)c1ccncc1NS(=O)(=O)c1cccnc1,> 65
3,Cc1c(Cl)cccc1-n1ncc(C(=O)Nc2ccc(Br)cc2F)c1C1CCNCC1,> 72
4,CC(C)(C)c1ccc(-n2cnc3cc(C(=O)N4CCCCC4)ccc32)cc1,< 1
5,CC(C)CS(=O)(=O)c1oc(-c2ccc(F)cc2)nc1S(=O)(=O)c1ccccc1,< 1
6,COc1cc(-c2nc(-c3ccccc3)c(-c3cccs3)[nH]2)cc(OC)c1O,< 1
7,CC[C@@]1(O)C(=O)OCc2c1cc1n(c2=O)Cc2c-1nc1ccccc1c2CCNC(C)C,> 6
8,N#Cc1c(NC(=O)c2cccc3ccccc23)sc2c1CCCC2,< 1
9,C[C@@]1(c2ncncc2F)NC(=O)c2cc(-c3cn[nH]c3)ccc21,17.9
10,Cc1ccc(-c2cc(C(=O)Nc3ccccn3)c3ccccc3n2)cc1,< 1
11,O=[S+]([O-])(Nc1ccccc1)c1ccc(NCc2cccc(C(F)(F)F)c2F)cc1,1.11
12,CC(=O)c1ccc(N2CCN(S(=O)(=O)c3ccc4c(c3)CC(=O)N4)CC2)cc1,2.85
13,c1ccc2[nH]c(Nc3nc(-c4ccncc4)nc4ccccc34)nc2c1,< 1
14,COc1cc2nc(N3CCCC3)nc(NCCCCCN3CCCC3)c2cc1OC,> 61
15,COc1cc2c(cc1Oc1cccc(N(C)C)c1)NC(=O)C21CCN(c2cnccn2)CC1,2.21
16,c1ccc(-c2cn[nH]c2)cc1,> 14
17,c1coc(-c2nc3ccncc3[nH]2)c1,13.9
18,O=c1cc(/C=C/c2c(F)cccc2Cl)[nH]c2ccccc12,1.73
19,COc1cccc(C(=O)Nc2ccc3oc(-c4ccc5ccccc5c4)nc3c2)c1,< 1
20,CSc1ccc(C(=O)c2[nH]c(=O)[nH]c2C)cc1,> 37
21,O=C(NC1CCCc2c1cnn2-c1ccc(F)cc1F)c1ccc(C2(C(F)(F)F)N=N2)cc1 (stereo not drawn),< 1
22,Cc1cc(-c2ccc(C)c(S(=O)(=O)NCC3CCN(Cc4ccc(F)cc4)CC3)c2)on1,40.5
23,Cn1c(CN2CCCCC2)nc2cc(NC(=O)c3cccc(Br)c3)ccc21,> 63
24,COc1cc(Cl)cn2c(-c3cccc(NC4CNC4)n3)cnc12,> 49
25,COc1cccc(O)c1CNc1ccc(S(=O)(=O)Nc2nccs2)cc1,> 58

row,SMILES,solubility kinetic [µg/mL]
1,Cc1n[nH]c(C)c1CCc1nc2c3ccccc3nc(SCC(=O)Nc3ccc(F)cc3)n2n1,< 1
2,COc1ccc(-c2nc3sc(CCNC(=O)C(C)(C)C)c(C)n3n2)cc1,> 55
3,C[C@@H]1CN(CC(=O)N2CC(C)(C)c3ncc(Cc4ccc(F)cc4)cc32)[C@@H](CN2CCOC[C@H]2C)CN1,> 75
4,Cc1ccc(S(=O)(=O)Nc2cnccc2C(=O)Nc2nc(-c3ccccc3F)cs2)cc1,< 1
5,COc1ccc(-n2c(C)cc(-c3nnc4n3CCCCC4)c2C)cc1,31.9
6,N#Cc1ccccc1-c1csc(N2CCC(C(N)=O)CC2)n1,36.9
7,CCn1c(C(=O)NCCc2ccc(OC)cc2)cc2sccc21,2.08
8,O=C(NC1CCCc2c1[nH]c1ccc(Cl)cc21)c1ccncc1 (stereo not drawn),< 1
9,O=C(Nc1nc(-c2ccccn2)cs1)c1cccc(-n2cnnn2)c1,1.1
10,CNC(=O)c1ccccc1Nc1nc(Nc2ccc(N3CCOCC3)cc2OC)ncc1Cl,4.18
11,C=CC(=O)N1CCCN(c2cc(NCCC(=O)O)nc(-c3ccccn3)n2)CC1,> 59
12,CCN1C(=O)c2ccccc2[S@](=O)c2ccc(C(=O)NCc3ccc(C#N)cc3)cc21,29.4
13,O=C(Nc1nc(-c2ccccc2)cs1)c1ccncc1NS(=O)(=O)c1ccccc1,21.2
14,COc1cccc(-n2nc(C(=O)O)cc2-c2ccc(C3CCCCC3)c(Cl)c2)c1,15.2
15,O=C(CCCCCCC(=O)Nc1ccccc1)NO,> 39
16,Cc1ccnc(NC(=S)N2CCN(c3ccc(N)cc3)CC2)c1,> 48
17,O=C(c1ccc(C(=O)N2CCC(N3CCCC3)CC2)c(Nc2ccccc2)c1)N1CCC(N2CCCC2)CC1,63.8
18,Cc1ccc(NC(=O)c2cc(S(=O)(=O)NCCC3=CCCCC3)ccc2F)cc1F,< 1
19,NC(=O)C1CCN(c2nc(-c3ccc(N)cc3)cs2)CC1,> 45
20,COc1cc(C(=S)N2CCN(CCO)CC2)ccc1OCc1ccc(C)cc1,35.9
21,C[C@H]1CN(C(=O)c2nn(C)c3ccccc23)C[C@@H]1c1nc(-c2ccncc2)no1,34.9
22,O=S(=O)(Nc1nccs1)c1ccc(NCc2cccc(Cl)c2O)cc1,46.1
23,O=[N+]([O-])c1cccnc1N/N=C/c1ccccc1O,< 1
24,O=C(O)c1cccc(-n2cccc2/C=C2/NC(=O)N(c3cccc(Cl)c3)C2=O)c1,32.7
25,Cc1cccc(-c2[nH]c(C(C)(C)C)nc2-c2ccc3nccnc3c2)n1,> 51

row,SMILES,solubility kinetic [µg/mL]
1,COc1ccccc1N1CCN(C2CCCCC2NS(=O)(=O)c2ccccc2)CC1 (stereo not drawn),2.68
2,CNc1oc(-c2cccc3ccccc23)nc1C#N,< 1
3,Cc1ccc(-c2cc(C(=O)Nc3ccc(-n4cncn4)cc3)c3ccccc3n2)cc1C,< 1
4,CN(C)c1ccc2cc(C(=O)N[C@@H](CCCN=C(N)CCl)C(=O)NCc3ccccc3)ccc2c1,52.4
5,CN1CCc2cc3c(cc2C1)OCO3,> 28
6,NC(=O)C1CCN(c2nc(-c3ccccc3Br)cs2)CC1,> 54
7,COc1ccc(C(=O)N2CCC3(CC2)CN(c2cccc(-c4ccccc4)c2)C3)cc1,< 1
8,O=C1CN(C(=O)CCC(=O)N2CCc3c(nc4cc(-c5ccccc5)[nH]n4c3=O)C2)c2ccccc2N1,15.6
9,CC(=O)c1c(C)[nH]c(C(=O)Nc2cccc(S(=O)(=O)Nc3ccc(Br)cc3)c2)c1C,< 1
10,COc1ccc(Cl)cc1C(=O)Nc1nc(-c2ccccc2)cs1,< 1
11,CC(=O)c1ccc(N2CCN(c3ccc(NC(=O)c4ccc(F)cc4)cc3C(=O)O)CC2)cc1,< 1
12,Cn1cc(S(=O)(=O)N2CCCCCC2)cc1C(=O)Nc1ccc(Cl)c(C(F)(F)F)c1,< 1
13,Cc1nc(N2CCN(c3ccccn3)CC2)c2c(C)c(C(=O)Nc3ccc(F)cc3Cl)sc2n1,< 1
14,CCOC(=O)N1CCN(Cc2nc3c(c(=O)n(C)c(=O)n3C)n2Cc2ccc(F)cc2)CC1,> 68
15,CN1CCN(C2=Nc3ccccc3Sc3ccc(Cl)cc32)CC1,18.7
16,CCCc1cc(C)[nH]c(=O)c1CNC(=O)c1cc(-c2ccc(N3CCN(C(C)C)CC3)nc2)cc2c1cnn2C(C)C,41.1
17,CCOc1ccccc1C(=O)NC1CCN(c2cc(C)cc(C)c2)C1=O (stereo not drawn),26.8
18,COc1ccc(C(=O)CCN(C)C)cc1F,> 33
19,CC(C)(C)c1ccc(C(=O)Nc2ccc3c(c2)CCCN3C(=O)c2cccs2)cc1,< 1
20,O=C(O)CCNc1cc(N2CCc3ccccc3CC2)nc(-c2ccccn2)n1,> 58
21,Cc1cc(-c2nnc3n2CCCCC3)c(C)n1-c1ccccc1,> 45
22,Cc1ccnc(NC(=S)N2CCN(c3cccc(C(F)(F)F)c3)C[C@@H]2C)c1,3.88
23,CCOc1cc(CNc2ccc(O)cc2)ccc1OCc1ccc(Cl)cc1,4.36
